Laboratory results from patent publication US6737383B1, “Herbicidal oxadiazolidines” (priority 1999, dated 2004).

Columns and labels:
[1] = tested on: velvetleaf; test: Test B pre/postemergence velvetleaf; type: in vivo, Abutilon theophrasti
In short: (§1)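 Response is a visual 0-to-10 score relative to untreated plants, where 0 means no effect and 10 means complete control, taken twelve to sixteen days after application. Treatments went onto soil at planting and onto foliage of 1- to 4-leaf plants, using a surfactant-containing non-phytotoxic solvent.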

[2] = tested on: bamyardgrass; test: Test B flood test barnyardgrass; type: in vivo, Echinochloa crus-galli; conditions: Pre-emergence
In short: (§2)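 Flood test on plants grown to the 2-leaf stage; treated plants kept in greenhouse twelve to sixteen days, then visually rated against controls on a 0 (no effect) to 10 (complete control) scale.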

[3] = tested on: purple nutsedge; test: Test B pre/postemergence purple nutsedge; type: in vivo, Cyperus rotundus
In short: as §1

[4] = tested on: wild oat; test: Test B pre/postemergence wild oat; type: in vivo, Avena fatua
In short: as §1

[5] = tested on: wheat; test: Test B pre/postemergence wheat; type: in vivo, Triticum aestivum
In short: as §1

[6] = tested on: crabgrass; test: Test B pre/postemergence crabgrass; type: in vivo, Digitaria sanguinalis
In short: as §1

[7] = tested on: soybean; test: Test B pre/postemergence soybean; type: in vivo, Glycine max
In short: as §1

[8] = tested on: pigweed; test: Test B pre/postemergence pigweed; type: in vivo, Amaranthus retroflexus
In short: as §1

[9] = tested on: morningglory; test: Test B pre/postemergence morningglory; type: in vivo, Ipomoea hederacea
In short: as §1

[10] = tested on: rape; test: Test B pre/postemergence rape; type: in vivo, Brassica napus
In short: as §1

[11] = tested on: duck salad; test: Test B flood test duck salad; type: in vivo, Heteranthera limosa; conditions: Pre-emergence
In short: as §2

[12] = tested on: rice; test: Test B flood test rice; type: in vivo, Oryza sativa; conditions: Pre-emergence
In short: as §2

[13] = tested on: sugar beet; test: Test B pre/postemergence sugar beet; type: in vivo, Beta vulgaris
In short: as §1

[14] = tested on: cocklebur; test: Test B pre/postemergence cocklebur; type: in vivo, Xanthium strumarium
In short: as §1

[15] = tested on: giant foxtail; test: Test B pre/postemergence giant foxtail; type: in vivo, Setaria faberii
In short: as §1

[16] = tested on: corn; test: Test B pre/postemergence corn; type: in vivo, Zea mays
In short: as §1

[17] = Preemergence, Rate 62 g/ha, scale of 0 to 10 where 0 is no effect and 10 is complete control
[18] = Preemergence, Rate 250 g/ha, scale of 0 to 10 where 0 is no effect and 10 is complete control
[19] = Preemergence, Rate 500 g/ha, scale of 0 to 10 where 0 is no effect and 10 is complete control
[20] = Rate 62 g/ha, Postemergence, scale 0 to 10, 0 no effect, 10 complete control
[21] = Rate 125 g/ha, Postemergence, scale of 0 to 10 where 0 is no effect and 10 is complete control
[22] = Rate 250 g/ha, Postemergence, scale of 0 to 10 where 0 is no effect and 10 is complete control
[23] = Rate 500 g/ha, Postemergence, scale 0 to 10, 0 no effect, 10 complete control
[24] = Rate 1000 g/ha, scale 0 to 10 (0 no effect, 10 complete control)
[25] = Rate 125 g/ha, flood test species, scale 0 to 10 where 0 is no effect and 10 is complete control
[26] = Rate 250 g/ha, flood-test species, scale 0 to 10, 0 is no effect, 10 is complete control

Compound: CC(C)N(C(=O)n1oc(=O)n(CC2CCCC2)c1=O)c1ccc(F)cc1 [Compound 322]
- Velvetleaf plant response rating [1, 17]: 0
- Velvetleaf plant response rating (0 to 10 scale) ([1]; Preemergence, Rate 125 g/ha): 0
- Velvetleaf plant response rating [1, 18]: 0
- Velvetleaf plant response rating [1, 19]: 0
- Velvetleaf plant response rating [1, 20]: 0
- Velvetleaf plant response rating [1, 21]: 0
- Plant response rating, Velvetleaf [1, 22]: 0
- Plant response rating, Velvetleaf [1, 23]: 2
- Barnyardgrass plant response rating [2, 24]: 9
- Barnyardgrass plant response rating [2, 25]: 3
- Barnyardgrass plant response rating [2, 26]: 7
- Nutsedge plant response rating [3, 17]: 0
- Nutsedge plant response rating (0 to 10 scale) ([3]; Preemergence, Rate 125 g/ha): 0
- Nutsedge plant response rating [3, 18]: 0
- Nutsedge plant response rating [3, 19]: 0
- Nutsedge plant response rating [3, 20]: 0
- Nutsedge plant response rating [3, 21]: 0
- Plant response rating, Nutsedge [3, 22]: 0
- Plant response rating, Nutsedge [3, 23]: 0
- Wild oats plant response rating [4, 17]: 0
- Wild oats plant response rating (0 to 10 scale) ([4]; Preemergence, Rate 125 g/ha): 0
- Wild oats plant response rating [4, 18]: 2
- Wild oats plant response rating [4, 19]: 3
- Wild oats plant response rating [4, 20]: 0
- Wild oats plant response rating [4, 21]: 0
- Plant response rating, Wild oats [4, 22]: 0
- Plant response rating, Wild oats [4, 23]: 2
- Wheat plant response rating [5, 17]: 0
- Wheat plant response rating (0 to 10 scale) ([5]; Preemergence, Rate 125 g/ha): 0
- Wheat plant response rating [5, 18]: 0
- Wheat plant response rating [5, 19]: 0
- Wheat plant response rating [5, 20]: 0
- Wheat plant response rating [5, 21]: 0
- Plant response rating, Wheat [5, 22]: 0
- Plant response rating, Wheat [5, 23]: 3
- Crabgrass plant response rating [6, 17]: 1
- Crabgrass plant response rating (0 to 10 scale) ([6]; Preemergence, Rate 125 g/ha): 2
- Crabgrass plant response rating [6, 18]: 5
- Crabgrass plant response rating [6, 19]: 7
- Crabgrass plant response rating [6, 20]: 0
- Crabgrass plant response rating [6, 21]: 0
- Plant response rating, Crabgrass [6, 22]: 2
- Plant response rating, Crabgrass [6, 23]: 5
- Soybean plant response rating [7, 17]: 0
- Soybean plant response rating (0 to 10 scale) ([7]; Preemergence, Rate 125 g/ha): 0
- Soybean plant response rating [7, 18]: 0
- Soybean plant response rating [7, 19]: 0
- Soybean plant response rating [7, 20]: 1
- Soybean plant response rating [7, 21]: 3
- Plant response rating, Soybean [7, 22]: 4
- Plant response rating, Soybean [7, 23]: 5
- Redroot pigweed plant response rating [8, 17]: 0
- Redroot pigweed plant response rating (0 to 10 scale) ([8]; Preemergence, Rate 125 g/ha): 6
- Redroot pigweed plant response rating [8, 18]: 8
- Redroot pigweed plant response rating [8, 19]: 8
- Redroot pigweed plant response rating [8, 20]: 2
- Redroot pigweed plant response rating [8, 21]: 3
- Plant response rating, Redroot pigweed [8, 22]: 3
- Plant response rating, Redroot pigweed [8, 23]: 6
- Morningglory plant response rating [9, 17]: 0
- Morningglory plant response rating (0 to 10 scale) ([9]; Preemergence, Rate 125 g/ha): 0
- Morningglory plant response rating [9, 18]: 0
- Morningglory plant response rating [9, 19]: 0
- Morningglory plant response rating [9, 20]: 4
- Morningglory plant response rating [9, 21]: 4
- Plant response rating, Morningglory [9, 22]: 7
- Plant response rating, Morningglory [9, 23]: 8
- Rape plant response rating [10, 17]: 0
- Rape plant response rating (0 to 10 scale) ([10]; Preemergence, Rate 125 g/ha): 0
- Rape plant response rating [10, 18]: 0
- Rape plant response rating [10, 19]: 2
- Rape plant response rating [10, 20]: 0
- Rape plant response rating [10, 21]: 0
- Plant response rating, Rape [10, 22]: 0
- Plant response rating, Rape [10, 23]: 0
- Ducksalad plant response rating [11, 24]: 0
- Ducksalad plant response rating [11, 25]: 0
- Ducksalad plant response rating [11, 26]: 0
- Rice plant response rating [12, 24]: 0
- Rice plant response rating [12, 25]: 0
- Rice plant response rating [12, 26]: 0
- Sugarbeets plant response rating [13, 17]: 0
- Sugarbeets plant response rating (0 to 10 scale) ([13]; Preemergence, Rate 125 g/ha): 2
- Sugarbeets plant response rating [13, 18]: 2
- Sugarbeets plant response rating [13, 19]: 4
- Sugarbeets plant response rating [13, 20]: 0
- Sugarbeets plant response rating [13, 21]: 0
- Plant response rating, Sugarbeets [13, 22]: 0
- Plant response rating, Sugarbeets [13, 23]: 2
- Cocklebur plant response rating [14, 17]: 0
- Cocklebur plant response rating (0 to 10 scale) ([14]; Preemergence, Rate 125 g/ha): 0
- Cocklebur plant response rating [14, 18]: 0
- Cocklebur plant response rating [14, 19]: 4
- Cocklebur plant response rating [14, 20]: 0
- Cocklebur plant response rating [14, 21]: 0
- Plant response rating, Cocklebur [14, 22]: 0
- Plant response rating, Cocklebur [14, 23]: 4
- Giant foxtail plant response rating [15, 17]: 6
- Giant foxtail plant response rating (0 to 10 scale) ([15]; Preemergence, Rate 125 g/ha): 9
- Giant foxtail plant response rating [15, 18]: 9
- Giant foxtail plant response rating [15, 19]: 10
- Giant foxtail plant response rating [15, 20]: 0
- Giant foxtail plant response rating [15, 21]: 0
- Plant response rating, Giant foxtail [15, 22]: 1
- Plant response rating, Giant foxtail [15, 23]: 4
- Corn plant response rating [16, 17]: 0
- Corn plant response rating (0 to 10 scale) ([16]; Preemergence, Rate 125 g/ha): 0
- Corn plant response rating [16, 18]: 0
- Corn plant response rating [16, 19]: 0
- Corn plant response rating [16, 20]: 0
- Corn plant response rating [16, 21]: 0
- Plant response rating, Corn [16, 22]: 0
- Plant response rating, Corn [16, 23]: 0
